Measurements from ChEMBL document CHEMBL1131207, “Discovery and evaluation of a series of 3-acylindole imidazopyridine platelet-activating factor antagonists” (J Med Chem, 1998).

What was measured:
[1] = biological target: Platelet-activating factor receptor (Rattus norvegicus) (UniProt P46002); test: Ability to block the effect of exogenously administered PAF upon intravenous administration in PAF-induced rat skin permeability assay; type: functional, organism-based
[2] = biological target: Platelet-activating factor receptor (Rattus norvegicus) (UniProt P46002); test: Tested in vivo for to block the effect of exogenously administered PAF upon oral administration in PAF-induced rat skin permeability assay; type: functional, organism-based

Sequence of Platelet-activating factor receptor (Rattus norvegicus) (P46002 whole entry): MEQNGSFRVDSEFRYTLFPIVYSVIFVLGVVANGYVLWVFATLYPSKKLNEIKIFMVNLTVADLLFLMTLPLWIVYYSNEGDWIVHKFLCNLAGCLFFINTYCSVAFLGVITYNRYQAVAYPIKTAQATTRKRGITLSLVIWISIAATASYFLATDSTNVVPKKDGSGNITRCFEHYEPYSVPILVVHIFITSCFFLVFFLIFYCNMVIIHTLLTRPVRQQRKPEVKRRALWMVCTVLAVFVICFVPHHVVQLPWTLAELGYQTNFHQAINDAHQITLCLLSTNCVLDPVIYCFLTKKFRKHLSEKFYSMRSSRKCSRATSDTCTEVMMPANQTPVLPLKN

Cc1nc2cnccc2n1CC(=O)c1cn(C(=O)N(C)C)c2cc(-c3ccc(F)cc3)ccc12
ED50 [1]: > 1 mg/kg

COC(=O)c1cccc2c1c(C(=O)c1ccc(Cn3c(C)nc4cnccc43)cc1)cn2S(=O)(=O)C(C)C
ED50 [1]: 0.12 mg/kg

COC(=O)c1ccc2c(c1)c(C(=O)c1ccc(Cn3c(C)nc4cnccc43)cc1)cn2C(=O)N(C)C
ED50 [1]: > 1 mg/kg

Cc1nc2cnccc2n1CN1CCN(S(=O)(=O)c2cn(C(=O)N(C)C)c3cc(-c4ccc(F)cc4)ccc23)CC1
ED50 [1]: 0.019 mg/kg

Cc1nc2ccncc2n1Cc1ccc(C(=O)c2cn(C(=O)N(C)C)c3cc(-c4ccc(F)cc4)ccc23)cc1
ED50 [1]: 1.1 mg/kg

COC(=O)c1cccc2c1c(C(=O)c1ccc(Cn3c(C)nc4cnccc43)cc1)cn2C(=O)N1CCCC1
ED50 [1]: 0.005 mg/kg | ED50 [2]: 1.2 mg/kg

COC(=O)c1ccc(C(=O)OC)c2c(C(=O)c3ccc(Cn4c(C)nc5cnccc54)cc3)c[nH]c12
ED50 [1]: 0.035 mg/kg | ED50 [2]: 0.71 mg/kg

COC(=O)c1cccc2c1c(C(=O)c1ccc(Cn3c(C)nc4c[n+]([O-])ccc43)cc1)cn2C(=O)N(C)C
ED50 [1]: 0.14 mg/kg

COC(=O)c1cccc2c1c(C(=O)c1ccc(Cn3c(C)nc4cnccc43)cc1)cn2C(C)C
ED50 [1]: 0.1 mg/kg

Cc1nc2cnccc2n1Cc1ccc(C(=O)c2cn(C(=O)N(C)C)c3cccc(-c4ccc(F)cc4)c23)cc1
ED50 [1]: 0.004 mg/kg | ED50 [2]: 0.45 mg/kg

COC(=O)c1cccc2c1c(C(=O)c1ccc(Cn3c(C)nc4ccccc43)cc1)cn2C(=O)N(C)C
ED50 [1]: > 1 mg/kg

COC(=O)c1cccc2c1c(C(=O)c1ccc(Cn3c(C)nc4c(O)nccc43)cc1)cn2C(=O)N(C)C
ED50 [1]: 0.25 mg/kg

Cc1nc2cnccc2n1Cc1ccc(C(=O)c2cn(C(=O)N(C)C)c3ccccc23)cc1
ED50 [1]: 0.18 mg/kg

Cc1nc2cnccc2n1Cc1csc(C(=O)c2cn(C(=O)N(C)C)c3cc(-c4ccc(F)cc4)ccc23)n1
ED50 [1]: 0.35 mg/kg

Cc1nc2cnccc2n1Cc1ccc(C(=O)c2c[nH]c3c(OCc4ccccc4)cccc23)cc1
ED50 [1]: 0.24 mg/kg

Cc1nc2cnccc2n1CCCCCC(=O)c1cn(C(=O)N(C)C)c2cccc(-c3ccc(F)cc3)c12
ED50 [1]: 0.005 mg/kg | ED50 [2]: > 1 mg/kg

Cc1cccc2c1c(C(=O)c1ccc(Cn3c(C)nc4cnccc43)cc1)cn2C(=O)N(C)C
ED50 [1]: 0.004 mg/kg | ED50 [2]: 0.2 mg/kg

Cc1nc2cnccc2n1Cc1ccc(C(=O)c2cn(C(=O)N(C)C)c3ccc(-c4ccc(F)cc4)cc23)cc1
ED50 [1]: > 1 mg/kg

C#Cc1cccc2c1c(C(=O)c1ccc(Cn3c(C)nc4cnccc43)cc1)cn2C(=O)N(C)C
ED50 [1]: 0.003 mg/kg | ED50 [2]: 0.14 mg/kg

COC(=O)c1cccc2c1c(C(=O)C1CCC(Cn3c(C)nc4cnccc43)CC1)cn2C(=O)N(C)C (centres undefined)
ED50 [1]: 0.02 mg/kg | ED50 [2]: > 1 mg/kg

Cc1nc2cnccc2n1Cc1ccc(S(=O)(=O)c2cn(C(=O)N(C)C)c3ccccc23)cc1
ED50 [1]: > 1 mg/kg

C#Cc1cccc2c1c(C(=O)c1ccc(Cn3c(C)nc4cnccc43)c(F)c1)cn2C(=O)NC
ED50 [1]: 0.006 mg/kg

Cc1nc2cnccc2n1Cc1ccc(C(=O)c2cn(C(=O)N(C)C)c3cccc(Cl)c23)cc1
ED50 [1]: 0.008 mg/kg | ED50 [2]: 0.12 mg/kg

Cc1nc2cnccc2n1CC1CCN(C(=O)c2cn(C(=O)N(C)C)c3cc(-c4ccc(F)cc4)ccc23)CC1
ED50 [1]: 0.022 mg/kg | ED50 [2]: 2.2 mg/kg

C#Cc1cccc2c1c(C(=O)c1ccc(Cn3c(C)nc4c[n+]([O-])ccc43)c(F)c1)cn2C(=O)N(C)C
ED50 [1]: > 0.5 mg/kg

Cc1nc2cnccc2n1Cc1ccc(C(=O)c2cn(C(=O)N(C)C)c3cccc(Br)c23)cc1
ED50 [1]: 0.007 mg/kg | ED50 [2]: 0.13 mg/kg

COC(=O)c1cc(-c2ccc(F)cc2)cc2c1c(C(=O)c1ccc(Cn3c(C)nc4cnccc43)cc1)cn2C(=O)N(C)C
ED50 [1]: 0.002 mg/kg | ED50 [2]: 0.64 mg/kg

COC(=O)c1cccc2c1c(C(=O)c1ccc(Cn3c(C)nc4cnccc43)cc1)cn2CC(=O)N(C)C
ED50 [1]: 0.012 mg/kg | ED50 [2]: 2.4 mg/kg

COC(=O)c1cccc2c1c(C(=O)CN1CCC(n3c(C)nc4cnccc43)CC1)cn2C(=O)N(C)C
ED50 [1]: 0.006 mg/kg | ED50 [2]: > 1 mg/kg

COC(=O)c1cccc2c1c(C(=O)c1ccc(Cn3c(C)nc4ccccc43)cc1)cn2C(=O)N1CCCC1
ED50 [1]: 1 mg/kg

Cc1nc2cnccc2n1Cc1ccc(C(=O)c2c[nH]c3cc(-c4ccc(F)cc4)ccc23)cc1
ED50 [1]: 1.3 mg/kg

COC(=O)c1cccc2c1c(C(=O)c1ccc(Cn3c(C)nc4ncccc43)cc1)cn2C(=O)N(C)C
ED50 [1]: 0.026 mg/kg

Cc1nc2cnccc2n1CCCN(C)CC(=O)c1cn(C(=O)N(C)C)c2cc(-c3ccc(F)cc3)ccc12
ED50 [1]: > 1 mg/kg

COC(=O)c1cccc2c1c(C(=O)Cc1ccc(-n3c(C)nc4cnccc43)cc1)cn2C(=O)N(C)C
ED50 [1]: 0.005 mg/kg | ED50 [2]: 0.17 mg/kg

C#Cc1cccc2c1c(C(O)c1ccc(Cn3c(C)nc4cnccc43)c(F)c1)cn2C(=O)N(C)C (centres undefined)
ED50 [1]: 0.007 mg/kg

Cc1nc2cnccc2n1Cc1ccc(C(=O)c2cn(C(=O)N(C)C)c3cccc(C(=O)O)c23)cc1
ED50 [1]: > 1 mg/kg

Cc1nc2cnccc2n1Cc1ccc(C(=O)c2cn(C(=O)N(C)C)c3cccc(C(=O)OC(C)C)c23)cc1
ED50 [1]: 0.006 mg/kg

Cc1nc2cnccc2n1Cc1ccc(C(=O)c2cn(C(=O)N(C)C)c3cccc(-c4ccco4)c23)cc1
ED50 [1]: 0.007 mg/kg | ED50 [2]: 0.79 mg/kg

COC(=O)c1cc(Br)cc2c1c(C(=O)c1ccc(Cn3c(C)nc4cnccc43)cc1)cn2C(=O)N(C)C
ED50 [1]: 0.009 mg/kg | ED50 [2]: 0.83 mg/kg

Cc1nc2cnccc2n1Cc1ccc(C(=O)c2cn(C(=O)N(C)C)c3cccc(C(=O)OCc4ccccc4)c23)cc1
ED50 [1]: 0.12 mg/kg

CCOC(=O)c1cccc2c1c(C(=O)c1ccc(Cn3c(C)nc4cnccc43)cc1)cn2C(=O)N(C)C
ED50 [1]: 0.006 mg/kg | ED50 [2]: > 1 mg/kg

COC(=O)c1cccc2c1c(C(=O)c1ccc(Cn3c(C)nc4cnccc43)cc1)cn2S(=O)(=O)N(C)C
ED50 [1]: 0.074 mg/kg

COC(=O)c1cccc2[nH]cc(C(=O)c3ccc(Cn4c(C)nc5cnccc54)cc3)c12
ED50 [1]: 0.15 mg/kg

Cc1nc2ncccc2n1Cc1ccc(C(=O)c2cn(C(=O)N(C)C)c3cccc(Cl)c23)cc1
ED50 [1]: 0.34 mg/kg

COC(=O)c1cccc2c1c(C(=O)CCCCCn1c(C)nc3cnccc31)cn2C(=O)N(C)C
ED50 [1]: 0.013 mg/kg | ED50 [2]: 1.1 mg/kg

COC(=O)c1cccc2c1c(C(=O)c1ccc(Cn3c(C)nc4ccncc43)cc1)cn2C(=O)N(C)C
ED50 [1]: 0.24 mg/kg

Cc1nc2cnccc2n1Cc1ccc(C(=O)c2cn(C(=O)N(C)C)c3cccc(OC(=O)N(C)C)c23)cc1
ED50 [1]: 0.005 mg/kg | ED50 [2]: 0.34 mg/kg

COC(=O)c1cccc2c1c(C(=O)c1ccc(Cn3c(C)nc4c(C)nc(C)cc43)cc1)cn2C(=O)N(C)C
ED50 [1]: > 1 mg/kg

Cc1nc2cnccc2n1Cc1ccc(C(=O)c2cn(C(=O)N(C)C)c3cccc(F)c23)cc1
ED50 [1]: 0.18 mg/kg

Cc1nc2cnccc2n1CCN1CCN(C(=O)c2cn(C(=O)N(C)C)c3cc(-c4ccc(F)cc4)ccc23)CC1
ED50 [1]: > 1 mg/kg

Cc1ccc(C)c2c(C(=O)c3ccc(Cn4c(C)nc5cnccc54)cc3)c[nH]c12
ED50 [1]: 0.054 mg/kg

Cc1nc2cnccc2n1Cc1ccc(C(=O)c2cn(C(=O)N(C)C)c3cccc(O)c23)cc1
ED50 [1]: > 1 mg/kg

COC(=O)c1cc(-c2cc3ccccc3o2)cc2c1c(C(=O)c1ccc(Cn3c(C)nc4cnccc43)cc1)cn2C(=O)N(C)C
ED50 [1]: 0.011 mg/kg

CNC(=O)n1cc(C(=O)c2ccc(Cn3c(C)nc4cnccc43)cc2)c2c(C(=O)OC)cccc21
ED50 [1]: 0.007 mg/kg

CCOCCn1cc(C(=O)CN2CCC(n3c(C)nc4cnccc43)CC2)c2c(Cl)cccc21
ED50 [1]: 0.068 mg/kg

Cc1nc2cnccc2n1Cc1ccc(C(=O)c2cn(C(=O)N(C)C)c3cccc(NC(=O)c4ccccc4)c23)cc1
ED50 [1]: 0.11 mg/kg

COC(=O)c1cccc2c1c(C(=O)c1ccc(Cn3c(C)nc4cnccc43)s1)cn2C(=O)N(C)C
ED50 [1]: 0.12 mg/kg

COC(=O)c1cccc2c1c(C(=O)c1ccc(Cn3c(C)nc4cnccc43)cc1)cn2CC(=O)C(C)(C)C
ED50 [1]: 0.036 mg/kg

COC(=O)c1cccc2c1c(S(=O)(=O)c1ccc(Cn3c(C)nc4cnccc43)cc1)cn2C(=O)N(C)C
ED50 [1]: 0.48 mg/kg

Cc1[nH]c2ccccc2c1C(=O)c1ccc(Cn2c(C)nc3cnccc32)cc1
ED50 [1]: > 1 mg/kg

COC(=O)c1cccc2c1c(C(=O)c1ccc(Cn3c(C)nc4cnccc43)cc1)cn2C(N)=O
ED50 [1]: 0.12 mg/kg

COC(=O)c1cccc2c1c(C(=O)CCCCn1c(C)nc3cnccc31)cn2C(=O)N(C)C
ED50 [1]: > 1 mg/kg

Cc1nc2cnccc2n1Cc1ccc(C(=O)c2c[nH]c3c(-c4ccc(F)cc4)cccc23)cc1
ED50 [1]: > 1 mg/kg

C#Cc1cccc2[nH]cc(C(=O)c3ccc(Cn4c(C)nc5cnccc54)c(F)c3)c12
ED50 [1]: 0.018 mg/kg

COC(=O)c1[nH]c2cccc(OC)c2c1C(=O)c1ccc(Cn2c(C)nc3cnccc32)cc1
ED50 [1]: 0.65 mg/kg

COC(=O)c1cccc2c1c(C(=O)c1ccc(Cn3c(C)nc4cnccc43)cc1)cn2C(=O)N(C)C
ED50 [2]: 0.22 mg/kg

Cc1nc2cnccc2n1C1CCN(C(=O)c2cn(C(=O)N(C)C)c3cc(-c4ccc(F)cc4)ccc23)CC1
ED50 [1]: > 1 mg/kg

COC(=O)c1cccc2c1c(C(=O)CCCCCCn1c(C)nc3cnccc31)cn2C(=O)N(C)C
ED50 [1]: > 1 mg/kg

Cc1nc2cnccc2n1Cc1ccc(C(=O)c2cn(C(=O)N(C)C)c3cccc(C#N)c23)cc1
ED50 [1]: 0.23 mg/kg

COC(=O)c1cccc2c1c(C(=O)c1ccc(Cn3c(C)nc4cccnc43)cc1)cn2C(=O)N(C)C
ED50 [1]: 1.2 mg/kg
